Measured values taken from paper PMC5085249, “The Diguanylate Cyclase HsbD Intersects with the HptB Regulatory Cascade to Control Pseudomonas aeruginosa Biofilm and Motility” (PLoS Genetics, 2016).

Biological target: T1, HsbD (PA3343) (Pseudomonas aeruginosa, UniProt Q9HYQ2)
T1 construct: His-HsbD overexpressed in E. coli BL21(DE3), whole-cell lysate; native protein 389 aa, six predicted TM domains (52-206), GGDEF domain 252-389; tag kept
Assay: DRaCALA (nitrocellulose, […]-labelled ligand)
Type: binding
Conditions: 4 nM 32P-c-di-GMP; E. coli whole-cell lysate; 40 mM Tris pH 7.5, 100 mM NaCl, 10 mM MgCl2; allosteric inhibitory I-site; labelled compound

T1 sequence (Q9HYQ2 entry or part of it): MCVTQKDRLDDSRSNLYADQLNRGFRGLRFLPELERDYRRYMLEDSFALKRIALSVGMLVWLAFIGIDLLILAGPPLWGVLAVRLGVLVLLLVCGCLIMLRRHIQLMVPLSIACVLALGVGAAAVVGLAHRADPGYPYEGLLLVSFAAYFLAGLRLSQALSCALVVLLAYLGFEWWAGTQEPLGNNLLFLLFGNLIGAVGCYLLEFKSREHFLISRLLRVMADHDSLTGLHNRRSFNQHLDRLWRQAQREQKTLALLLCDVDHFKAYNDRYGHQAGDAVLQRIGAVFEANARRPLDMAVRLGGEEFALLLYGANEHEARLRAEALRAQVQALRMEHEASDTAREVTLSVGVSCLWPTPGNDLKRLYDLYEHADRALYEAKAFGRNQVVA

For `Nc1nc2c(ncn2[C@@H]2O[C@@H]3COP(=O)(O)O[C@H]4[C@@H](O)[C@H](n5cnc6c(=O)[nH]c(N)nc65)O[C@@H]4COP(=O)(O)O[C@H]3[C@H]2O)c(=O)[nH]1` [c-di-GMP], the fraction bound was “Significant c-di-GMP binding was observed with the construct encoding wild-type HsbD”.
